Measurements reported in patent US4606911A, “Pharmaceutical composition for the prevention of dental caries” (Rohto Pharmaceutical Co. Ltd., priority 1984, dated 1986).
“Also recorded” adds a separate entry of the source.

Columns and labels:
[1] = test system: S. mutans OMZ 176 (serotype d); experiment: microbe, parasite or virus in culture; format: cell-based
Protocol: The adherence-inhibiting activity of the triterpenes of the formula (I) was measured using an inner wall of a test tube in place of the surface of a tooth.
To 2.9 ml of BHI medium containing 5% sucrose in a test tube (i) are added 30 μl of a sample solution prepared by dissolving a compound of: the formula (I) in H2 O or dimethylsulfoxide (DMSO) and 100 μl of culture medium containing S. mutans OMZ 176 (serotype d) which was preincuvated at 37° C. for 24 hours in BHI medium, and the mixture is incubated at 37° C. for 20 hours, with the test tube being maintained at a slant of 30°. The test tube is revolved gently two or three times and the supernatant is transferred to another test tube (ii). To the first test tube (i) is added 3 ml of 50 mM phosphate buffer (pH 7.5), and the test tube is gently revolved two or three times. The resultant supernatant is transferred to the third test tube (iii). The test tubes (ii) and (iii) are each centrifuged and respective supernatants are discarded. To each of the test tubes (i), (ii) and (iii) is added 3 ml of 0.5M NaOH, and the test tubes are shaken to suspend bacterial cells. Absorbance of the resulting suspension is measured at 660 nm. The absorbances obtained with respect to the test tube (i), (ii) and (iii) are represented by Ab(i), Ab(ii) and Ab(iii), respectively. Ab(i) reflects the amount of the bacterial cells adhered to the wall of the test tube and Ab(ii) and Ab(iii) correspond to the amount of the bacterial cells not adhered to the wall.
The same procedure is repeated using 30 μl of distilled water or DMSO in place of the sample solution to obtain a control. The absorbance of the control is represented by Ab(Cont.).
Adherence percentage of bacteria is calculated from the following equation. [formula]
Adherence inhibitory percentage (AIP) is calculated using the adherence percentage according to the following equation. [formula]
The magnitude of adherence-inhibiting activity of each of the samples is shown, in Table 3, by the use of the following symbols: […]

Esherichia coli K12 = experiment: Antibacterial activity (MIC, growth in BHI medium); format: cell-based; design: key to Antibacterial activity (growth): -: grow; ±: slightly grow; +: not grow
Protocol: To a test tube was charged 3.8 ml of Brain Heart Infusion (BHI) medium, and 100 μl of a sample solution containing oleanolic, ursolic or glycyrrhetic acid and 100 μl of pre-incubated culture of bacterium selected from those listed below were added thereto. The mixture was incubated at 37° C. and then allowed to stand over night. The extent of the growth of bacterium was observed after two or five days.
Esherichia coli K12 (Gram negative)

[2] = Streptococcus mutans, read-out: Adherence-inhibiting activity (AIP)

In the case of `CC1(C)CC[C@]2(C(=O)O)CC[C@]3(C)C(=CC[C@@H]4[C@@]5(C)CC[C@H](O)C(C)(C)[C@@H]5CC[C@]43C)[C@@H]2C1` [Oleanolic acid], the minimal effective concentration ([1]; Streptococcus mutans, 20 h, read-out: concentration at which adherence of the bacterial cells is inhibited) was 10 µg/mL, the inhibition at 10 µg/mL [1, 2] was greater than 50% and the inhibition at 20 µg/mL [1, 2] was greater than 50%. It also gave an inhibition at 30 µg/mL [1, 2] greater than 50%, an inhibition at 50 µg/mL [1, 2] greater than 50% and an inhibition at 100 µg/mL [1, 2] greater than 50%. For the same compound, the “adherence-inhibiting activity (in words)” value ([1]; text statement, listed as oleanolic acid) was “have both of the adherence-inhibiting activity and the selective antibacterial activity to S. mutans; also recorded: have both activities”, the “Antibacterial activity (growth)” value (Esherichia coli K12; 10 μg/ml) was “-” and the “Antibacterial activity (growth)” value (Esherichia coli K12; 25 μg/ml) was “-”. For the same compound, the “Antibacterial activity (growth)” value (Esherichia coli K12; 50 μg/ml) was “-”, the “Antibacterial activity (growth)” value (Esherichia coli K12; 100 μg/ml) was “-” and the “Antibacterial activity (growth)” value (Esherichia coli K12; 200 μg/ml) was “-”. The “Antibacterial activity (growth)” value (Esherichia coli K12; 400 μg/ml) was “-” and the MIC (Esherichia coli K12; Esherichia coli, BHI, 37° C., read-out: MIC (minimum inhibitory concentration)) was greater than 400 µg/mL.
